Experimental findings from the METLIN SMRT retention time set (Domingo-Almenara et al. 2019) are described below.

A short description of the data set: gradient 5% acetonitrile 3 min, to 50% in 2 min, to 85% in 15 min, held 3 min, 100 µL/min. To be noted: column: Zorbax Extend-C18 2.1 x 50 mm; eluents: water / acetonitrile, 0.1% formic acid. In short, it runs like this:
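Retention times of pure standards were taken from adduct peaks that were selected by computer and manually inspected. Over 3 months, mixtures of ~100 molecules were run by HPLC–quadrupole time-of-flight mass spectrometry in positive and negative ionization mode. The Zorbax Extend-C18 column (2.1 × 50 mm, 1.8 μm) ran at 100 μL/min in water and acetonitrile, each containing 0.1% formic acid, with 40 μL dead volume and 900 μL dwell volume.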
Consider `Cc1cc(S(=O)(=O)N2CCC(N(C(=O)C3CC3)C3CCOCC3)CC2)ccc1Cl`, for which the RP-LC retention time was 977 s.
In turn, `Cc1cc(NS(=O)(=O)c2c(C)noc2C)n(C2CCS(=O)(=O)C2)n1` (configuration not stated) came in with an RP-LC retention time of 676 s.
Take `CCC(C)NC(=O)c1cn(C)nc1S(=O)(=O)N1CCN(c2cc(Cl)ccc2C)CC1` (configuration not stated): the RP-LC retention time amounted to 1150 s.
For `CCc1cccc(N2C(=O)CN(S(C)(=O)=O)CC2(C)C(=O)NCc2ccc(F)cc2)c1` (configuration not stated), the RP-LC retention time came out at 847 s.
Compound `CN(C)c1ccc(-c2nc3cnccn3c2Nc2ccc(C(=O)O)cc2)cc1` displayed an RP-LC retention time of 616 s.
The compound `COc1ccc(-c2cn3c(CC(=O)Nc4ccc(S(N)(=O)=O)cc4)csc3n2)cc1OC` gave an RP-LC retention time of 630 s.
`COc1ccc(NC(=O)NCC23CCC=C2N(C)C(=O)CC3)cc1` (configuration not stated) came in with an RP-LC retention time of 745 s.
Next, `Cn1ncc(N2CCCC(CC(=O)O)C2)cc1=O` (configuration not stated): 613 s.
Take `CCN1C(=O)COc2ccc(-c3noc(-c4cccc(OC)c4)n3)cc21`: the RP-LC retention time stood at 1130 s.
`CC(C)c1ccc(S(=O)(=O)c2cnc(N3CCC(C(N)=O)(N4CCCCC4)CC3)nc2N)cc1` came in with an RP-LC retention time of 677 s.
Turning to `CCOc1ccc(S(=O)(=O)Nc2ccc(-c3cn4ccc(C)nc4n3)cc2)cc1`, the RP-LC retention time turned out to be 661 s.
The compound `COc1cccc(C2Nc3ccccc3NC3=C2C(=O)CC(C)(C)C3)c1O` (configuration not stated) yielded an RP-LC retention time of 686 s.
The compound `Cc1ccc(Cl)cc1NC(=O)C1CCN(S(=O)(=O)c2ccc3c(c2)NC(=O)CO3)CC1` gave an RP-LC retention time of 786 s.
`O=C(C1CCN(c2nc3ccc(-c4ccccc4)nc3s2)CC1)N1CCCC1` came in with an RP-LC retention time of 910 s.
In the case of `COc1cc(-c2nc3cccc(C)n3c2Nc2ccc(C)cc2)ccc1O`, the RP-LC retention time turned out to be 989 s.
`O=C(CCCN1C(=O)c2cccc3cccc(c23)C1=O)Nc1ccon1`: the RP-LC retention time is 723 s.
With `CCCOc1nc2ccccc2nc1N1CCCC(C(=O)Nc2ccc(F)c(Cl)c2)C1` (configuration not stated) the figure was 1130 s; with `CN(C)CCCNC(=O)Cn1c(=O)n(-c2ccccc2)c2ncccc21`, 592 s.
Turning to `O=C(Nc1ccccc1)N1CCC(n2cnc3ccc(Cl)cc3c2=O)CC1`, the RP-LC retention time was determined as 782 s.
The compound `Cc1ccc(S(=O)(=O)c2cnc(N3CCN(C4CCCCC4)CC3)nc2N)cc1C` displayed an RP-LC retention time of 718 s.
`CN1C(=O)c2cc(C(=O)NCCC3=CCCCC3)nn2CC1(C)C(=O)NCc1ccccc1` (configuration not stated) came in with an RP-LC retention time of 853 s.
`O=C(NCC1(O)CCCC1)C1CC(=O)N(c2ccccc2)C1` (configuration not stated) had an RP-LC retention time of 624 s.
With `Cc1nnc(-c2ccc3ccn(CC(=O)NCCc4ccc(S(N)(=O)=O)cc4)c3c2)o1` the figure was 648 s; with `Cc1ccc(-c2noc(Cc3nnc(-c4ccccc4)o3)n2)cc1C`, 1100 s; with `O=C(NCc1cccc(Br)c1)c1ccc2c(c1)ncn2CCN1CCCC1`, 599 s.
Next, `O=C(COc1ccc([N+](=O)[O-])cc1)Nc1ccc(S(=O)(=O)N2CCCCC2)cc1`: 886 s; `O=C(Nc1ccc(Br)cc1F)C1CCCN(c2cc(-n3cccn3)ncn2)C1` (configuration not stated): 967 s; `O=C(CSc1cc(N2CCN(c3ccccc3F)CC2)ncn1)NC1CCCC1`: 963 s.
Compound `CCCCN(C)S(=O)(=O)c1cc(-c2nnc(C3CCCC3)o2)co1` came in with an RP-LC retention time of 1060 s.
`COc1ccc(CC(=O)N2CC(c3nc(C)no3)C3(CCOCC3)C2)cc1` (configuration not stated): the RP-LC retention time was determined as 712 s.
For the compound `COc1ccc(-c2ccnn2-c2ccc(SCc3ccc(C)cc3)nn2)cc1`, the RP-LC retention time amounted to 1420 s.
As to `COc1ccc(Cl)cc1NS(=O)(=O)c1cc2n(c1)CCN(C(C)C)C2=O`, the RP-LC retention time worked out at 803 s.
